The text below walks through data of ChEMBL document CHEMBL1671744 (Antimicrob Agents Chemother, 2010).

Converted amounts (≈) assume the structure as drawn. Where a SMILES comes first, the peptide text is derived from it. [ ]: non-standard residue; d: D form. The star is where a group is joined. Leu(5,5,5,5',5',5'-F6) = N[C@@H](CC(C(F)(F)F)C(F)(F)F)C(=O)O; Lauroyl = CCCCCCCCCCCC(=O)*

One data set concerns Bacillus subtilis. As to the kind of experiment: Antimicrobial activity against Bacillus subtilis. The class given is functional.
Data set [1] has as its system Escherichia coli. As to the kind of experiment: Antimicrobial activity against Escherichia coli. The format is functional.
The next data set in a line: in vitro. The following applies: red blood cells.
The subject of the next data set is Staphylococcus aureus. As to the kind of experiment: Antimicrobial activity against methicillin-resistant Staphylococcus aureus. The format is functional.
Data set [2] concerns Staphylococcus epidermidis. The experiment in a line: Antimicrobial activity against methicillin-resistant Staphylococcus epidermidis. The format is functional.
The test system of data set [3] is Escherichia coli. The experiment in a line: Antimicrobial activity against Escherichia coli at pH 5.5. The class given is functional.
Data set [4] relates to Aspergillus fumigatus. The experiment in a line: Antimicrobial activity against Aspergillus fumigatus at pH 7.4. The class given is functional.
Data set [5] concerns Aspergillus fumigatus. As to the kind of experiment: Antimicrobial activity against Aspergillus fumigatus at pH 5.5. The class given is functional.
In data set [6] the test system is Escherichia coli. The experiment in a line: Antimicrobial activity against Escherichia coli at pH 7.4. The class given is functional.
Data set [7] can be described thus: Toxicity in RBC assessed as hemolysis at 50 uM at pH 7.4. The class given is cell-based. Conditions: erythrocyte, pH 7.4, 50 µM.
Data set [8] can be described thus: Toxicity in RBC assessed as hemolysis at 25 uM. The following applies: erythrocyte. The format is cell-based.
Data set [9] has as its system Aspergillus fumigatus. The experiment in a line: Antimicrobial activity against Aspergillus fumigatus. The format is functional.

With `CC[C@H](C)[C@H](NC(=O)CN)C(=O)NCC(=O)N[C@@H](CCCCN)C(=O)N[C@@H](Cc1ccccc1)C(=O)N[C@@H](CC(C(F)(F)F)C(F)(F)F)C(=O)N[C@@H](Cc1cnc[nH]1)C(=O)N[C@@H](C)C(=O)N[C@@H](C)C(=O)N[C@@H](CCCCN)C(=O)N[C@@H](CCCCN)C(=O)N[C@@H](Cc1ccccc1)C(=O)N[C@@H](C)C(=O)N[C@@H](CCCCN)C(=O)N[C@@H](C)C(=O)N[C@@H](Cc1ccccc1)C(=O)N[C@H](C(=O)N[C@@H](C)C(=O)N[C@@H](CCC(=O)O)C(=O)N[C@@H](CC(C(F)(F)F)C(F)(F)F)C(=O)N[C@@H](CCSC)C(=O)N[C@@H](CC(N)=O)C(=O)N[C@@H](CO)C(N)=O)C(C)C` (H-GIGKF[Leu(5,5,5,5',5',5'-F6)]HAAKKFAKAFVAE[Leu(5,5,5,5',5',5'-F6)]MNS-NH2), the MIC against Bacillus subtilis and against Escherichia coli [1] was 0.92 µM (≈ 2.48 µg/mL) in each case. Also, the HC50 (in general, the concentration that lyses half of the red blood cells) in the data set “in vitro” is 7.4 µM.

As for `NC[C@H]1O[C@@H](O[C@@H]2[C@@H](O[C@@H]3O[C@H](COC(=O)Nc4ccccc4)[C@@H](O[C@@H]4O[C@H](CN)[C@@H](O)[C@H](O)[C@H]4N)[C@H]3OC(=O)Nc3ccccc3)[C@@H](O)[C@H](N)C[C@@H]2N)[C@H](N)[C@@H](O)[C@@H]1O.O=C(O)C(F)(F)F`, the MIC (as a rule, the least concentration at which growth counts as inhibited) was found to be 1 µg/mL in the data set on Staphylococcus aureus and 0.5 µg/mL in [2].

Consider `CCCCCCCCCCCC(=O)N[C@H](CC(C)C)C(=O)N[C@@H](Cc1cnc[nH]1)C(=O)N[C@@H](Cc1cnc[nH]1)C(=O)N[C@H](CC(C)C)C(=O)N[C@H](CC(C)C)C(=O)N[C@@H](Cc1cnc[nH]1)C(=O)N[C@@H](Cc1cnc[nH]1)C(=O)N[C@H](CC(C)C)C(=O)N[C@H](CC(C)C)C(=O)N[C@@H](Cc1cnc[nH]1)C(=O)N[C@@H](Cc1cnc[nH]1)C(=O)N[C@H](CC(C)C)C(N)=O` (Lauroyl-[dL]HH[dL][dL]HH[dL][dL]HH[dL]-NH2), for which the MIC against Escherichia coli [3] is greater than 100 µM; in the data set on Aspergillus fumigatus [4], greater than 100 µM; in the data set with Aspergillus fumigatus [5], 6.2 µM (≈ 10.5 µg/mL); in the data set on Escherichia coli [6], greater than 100 µM. Moreover, the MHC entry in data set [7] is recorded as “Non-toxic”.

Take `CC[C@H](C)[C@H](NC(=O)CN)C(=O)NCC(=O)N[C@@H](CCCCN)C(=O)N[C@@H](Cc1ccccc1)C(=O)N[C@@H](CC(C)C)C(=O)N[C@@H](Cc1c[nH]cn1)C(=O)N[C@@H](CO)C(=O)N[C@@H](C)C(=O)N[C@@H](CCCCN)C(=O)N[C@@H](CCCCN)C(=O)N[C@@H](Cc1ccccc1)C(=O)NCC(=O)N[C@@H](CCCCN)C(=O)N[C@@H](C)C(=O)N[C@@H](Cc1ccccc1)C(=O)N[C@H](C(=O)NCC(=O)N[C@@H](CCC(=O)O)C(=O)N[C@H](C(=O)N[C@@H](CCSC)C(=O)N[C@@H](CC(N)=O)C(=O)N[C@@H](CO)C(=O)O)[C@@H](C)CC)C(C)C` [MAGAININ 2] (H-GIGKFLHSAKKFGKAFVGEIMNS-OH): the MIC with Bacillus subtilis and against Escherichia coli [1] was 1 µM (≈ 2.47 µg/mL) in each case. Also, in the data set “in vitro”, the HC50 was 70.6 µM.

With `CCCCCCCCCCCC(=O)N[C@H](CC(C)C)C(=O)N[C@@H](CCCCN)C(=O)N[C@@H](CCCCN)C(=O)N[C@H](CC(C)C)C(=O)N[C@H](CC(C)C)C(=O)N[C@H](CC(C)C)C(=O)N[C@@H](CCCCN)C(=O)N[C@@H](CCCCN)C(=O)N[C@H](CC(C)C)C(=O)N[C@H](CC(C)C)C(=O)N[C@@H](CCCCN)C(=O)N[C@@H](CCCCN)C(=O)N[C@H](CC(C)C)C(N)=O`, in data set [8], the MHC result is recorded as “Non-toxic”. The MIC is 25 µM (≈ 44 µg/mL) in the data set on Escherichia coli [1] and 6.25 µM (≈ 11 µg/mL) against Aspergillus fumigatus [9].

Turning to `CC(C)C[C@H](NC(=O)[C@H](CC(C)C)NC(=O)[C@H](CCCNC(=N)N)NC(=O)[C@H](Cc1cnc[nH]1)NC(=O)[C@@H](NC(=O)[C@H](CCCNC(=N)N)NC(=O)CNC(=O)[C@@H](NC(=O)[C@@H]1CCCN1C(=O)[C@@H](N)Cc1ccccc1)C(C)C)C(C)C)C(=O)N[C@@H](CCCNC(=N)N)C(=O)N[C@@H](CCCCN)C(=O)O` (H-FPVGRVHRLLRK-OH), the MIC against Bacillus subtilis and against Escherichia coli [1] was greater than 173 µM in each case. This compound registered a concentration for 50% haemolysis (HC50) in the data set “in vitro” greater than 270 µM.

Turning to `CC(C)C[C@@H](N)C(=O)N[C@@H](CCCCN)C(=O)N[C@@H](CCCCN)C(=O)N[C@H](CC(C)C)C(=O)N[C@H](CC(C)C)C(=O)N[C@H](CC(C)C)C(=O)N[C@@H](CCCCN)C(=O)N[C@@H](CCCCN)C(=O)N[C@H](CC(C)C)C(=O)N[C@H](CC(C)C)C(=O)N[C@@H](CCCCN)C(=O)N[C@@H](CCCCN)C(=O)N[C@H](CC(C)C)C(N)=O`, the MHC entry in [8] is recorded as “Non-toxic”. For the same compound, the MIC was greater than 50 µM against Escherichia coli [1] and 50 µM (≈ 78.9 µg/mL) in the data set on Aspergillus fumigatus [9].

Consider `CC(C)[C@H](NC(=O)[C@H](CCCNC(=N)N)NC(=O)CNC(=O)[C@@H](NC(=O)[C@@H]1CCCN1C(=O)[C@@H](N)Cc1ccccc1)C(C)C)C(=O)N[C@@H](Cc1cnc[nH]1)C(=O)N[C@@H](CCCNC(=N)N)C(=O)N[C@@H](CC(C(F)(F)F)C(F)(F)F)C(=O)N[C@@H](CC(C(F)(F)F)C(F)(F)F)C(=O)N[C@@H](CCCNC(=N)N)C(=O)N[C@@H](CCCCN)C(=O)O` (H-FPVGRVHR[Leu(5,5,5,5',5',5'-F6)][Leu(5,5,5,5',5',5'-F6)]RK-OH), for which the values for the MIC with Bacillus subtilis and with Escherichia coli [1] were 5.9 µM (≈ 9.99 µg/mL) and 23 µM (≈ 39 µg/mL), respectively. Moreover, the concentration for 50% haemolysis (HC50) in “in vitro” is greater than 235 µM.
